From ChEMBL document CHEMBL1124880 (J Med Chem, 1990)
pIC50: −log10 of the molar value.

How the values were obtained:
[1] = species: Rattus norvegicus; assay: Minimal effective dose in an rat anti-immobility effect using behavioral despair test; format: functional; conditions: read-out: MED
[2] = target: T1, Adenosine receptor A1 (Rattus norvegicus, UniProt P25099); assay: Binding affinity towards the adenosine A1 receptor in cerebral cortices of Sprague-Dawley male rats using [3H]CHA as radioligand.
T1 sequence (P25099 whole entry): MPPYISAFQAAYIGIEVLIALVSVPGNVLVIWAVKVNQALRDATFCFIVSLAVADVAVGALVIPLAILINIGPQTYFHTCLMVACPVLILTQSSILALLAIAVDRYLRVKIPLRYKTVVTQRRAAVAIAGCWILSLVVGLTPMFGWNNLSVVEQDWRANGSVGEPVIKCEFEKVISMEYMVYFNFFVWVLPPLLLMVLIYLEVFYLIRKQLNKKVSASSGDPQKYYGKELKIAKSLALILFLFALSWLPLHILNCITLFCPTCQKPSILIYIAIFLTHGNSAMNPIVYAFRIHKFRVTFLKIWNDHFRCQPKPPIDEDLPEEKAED

Row | SMILES | minimal effective dose [1] | pIC50 [2]
1 | CCc1nnc2c(N(CC)CC)nc3cc(Cl)ccc3n12 | 10 mg/kg | –
2 | CCN(CC)c1nc2ccc(F)cc2n2c(C(F)(F)F)nnc12 | > 32 mg/kg | –
3 | CC(C)(C)Nc1nc2ccccc2n2cnnc12 | > 32 mg/kg | 4.72
4 | CC(=O)Nc1nc2cc(F)ccc2n2cnnc12 | ≤ 32 mg/kg | –
5 | CCN(CC)c1nc2ccccc2n2c(-c3ccccc3)nnc12 | 1 mg/kg | –
6 | Cc1nnc2c(NC(C)C)nc3ccccc3n12 | 10 mg/kg | 6.07
7 | Clc1ccc2nc(N3CCNCC3)c3nncn3c2c1 | > 32 mg/kg | –
8 | CCc1nnc2c(N3CCCCC3)nc3ccccc3n12 | 10 mg/kg | 5.46
9 | CCNc1nc2ccc(F)cc2n2c(CC)nnc12 | 3.2 mg/kg | 6.15
10 | CCNc1nc2ccc(Cl)cc2n2c(C(F)(F)F)nnc12 | ≤ 32 mg/kg | –
11 | CN1CCN(c2nc3ccccc3n3cnnc23)CC1 | > 32 mg/kg | < 4.00
12 | CCc1nnc2c(NC(C)=O)nc3cc(Cl)ccc3n12 | 3.2 mg/kg | –
13 | CCNc1nc2ccccc2n2c(C(C)C)nnc12 | ≤ 32 mg/kg | 5.66
14 | CCc1nnc2c(N3CCOCC3)nc3ccccc3n12 | > 10 mg/kg | 4.55
15 | O=C1CCCN1c1nc2ccccc2n2cnnc12 | > 32 mg/kg | < 4.00
16 | Cc1nnc2c(N3CCCC3)nc3ccccc3n12 | > 32 mg/kg | 4.31
17 | CCc1nnc2c(N(C)C)nc3cc(Cl)c(Cl)cc3n12 | 3.2 mg/kg | –
18 | CCc1nnc2c(NC(=O)C(C)(C)C)nc3ccc(Cl)cc3n12 | ≤ 32 mg/kg | –
19 | c1ccc2c(c1)nc(N1CCCCC1)c1nncn12 | > 32 mg/kg | 4.00
20 | CCc1nnc2c(N(C(C)=O)C(C)=O)nc3ccccc3n12 | 3.2 mg/kg | 5.03
21 | CC(C)Nc1nc2cc(F)c(F)cc2n2cnnc12 | ≤ 3.2 mg/kg | 5.72

Row | SMILES | minimal effective dose [1] | pIC50 [2]
22 | CCN(CC)c1nc2ccccc2n2c(C(F)(F)F)nnc12 | ≤ 32 mg/kg | –
23 | CCN(CC)c1nc2cc(Br)c(Br)cc2n2cnnc12 | > 32 mg/kg | –
24 | CCCN(CCC)c1nc2ccccc2n2cnnc12 | > 32 mg/kg | ≤ 4.00
25 | CC(=O)N(c1nc2cc(Cl)c(Cl)cc2n2cnnc12)C(C)C | > 32 mg/kg | –
26 | CCc1nnc2c(N(C)C)nc3cc(Cl)ccc3n12 | 10 mg/kg | –
27 | CCc1nnc2c(NC(C)=O)nc3cc(F)ccc3n12 | ≤ 3.2 mg/kg | –
28 | CC(=O)Nc1nc2ccc(Cl)cc2n2c(C(F)(F)F)nnc12 | ≤ 3.2 mg/kg | 6.20
29 | CCc1nnc2c(N3CCNCC3)nc3cc(Cl)c(Cl)cc3n12 | ≤ 32 mg/kg | –
30 | CCc1nnc2c(NC(C)=O)nc3cc(OC)ccc3n12 | > 32 mg/kg | –
31 | CC(=O)N(c1nc2ccc(Cl)cc2n2cnnc12)C(C)C | ≤ 32 mg/kg | –
32 | CCC(=O)Nc1nc2ccc(Cl)cc2n2c(CC)nnc12 | ≤ 3.2 mg/kg | –
33 | CCCc1nnc2c(N(CC)CC)nc3ccccc3n12 | ≤ 32 mg/kg | –
34 | CC(=O)Nc1nc2ccc(Cl)cc2n2c(C)nnc12 | 3.2 mg/kg | –
35 | CCc1nnc2c(N(CC)C(C)=O)nc3ccccc3n12 | ≤ 32 mg/kg | –
36 | CC(=O)N(C(C)=O)c1nc2ccc(Cl)cc2n2cnnc12 | ≤ 32 mg/kg | –
37 | CCN(CC)c1nc2ccccc2n2c(C(C)C)nnc12 | ≤ 32 mg/kg | 4.72
38 | CCN(CC)c1nc2ccc(F)cc2n2cnnc12 | 3.2 mg/kg | < 5.00
39 | COc1ccc2c(c1)nc(NC(C)C)c1nncn12 | > 32 mg/kg | –
40 | CCNc1nc2cc(F)c(F)cc2n2cnnc12 | 3.2 mg/kg | 5.33
41 | CCc1nnc2c(N(CC)CC)nc3ccc(OC)cc3n12 | ≤ 32 mg/kg | –
42 | CC(=O)Nc1nc2ccccc2n2cnnc12 | ≤ 32 mg/kg | –

Row | SMILES | minimal effective dose [1] | pIC50 [2]
43 | CCN(CC)c1nc2ccccc2n2c(C)nnc12 | 3.2 mg/kg | < 5.00
44 | Cc1nnc2c(NC(C)C)nc3ccc(Cl)cc3n12 | 3.2 mg/kg | 7.00
45 | CCNc1nc2cc(F)ccc2n2c(CC)nnc12 | ≤ 32 mg/kg | –
46 | CC(=O)Nc1nc2ccc(F)cc2n2cnnc12 | ≤ 32 mg/kg | –
47 | CN(C)c1nc2ccc(F)cc2n2cnnc12 | ≤ 32 mg/kg | –
48 | Cc1nnc2c(N)nc3ccc(Cl)cc3n12 | ≤ 32 mg/kg | 6.46
49 | CCNc1nc2ccc(Cl)cc2n2c(-c3ccccc3)nnc12 | > 32 mg/kg | –
50 | CCN(CC)c1nc2ccc(Cl)cc2n2c(C)nnc12 | ≤ 32 mg/kg | 4.77
51 | CCNc1nc2ccc(Cl)cc2n2c(CC)nnc12 | 3.2 mg/kg | –
52 | CC(C)Nc1nc2cc(Cl)c(Cl)cc2n2cnnc12 | 3.2 mg/kg | 6.00
53 | CC(=O)N(C(C)=O)c1nc2ccccc2n2cnnc12 | ≤ 32 mg/kg | –
54 | CCc1nnc2c(NC(C)=O)nc3ccccc3n12 | 1 mg/kg | –
55 | CCc1nnc2c(N(CC)CC)nc3cc(F)c(F)cc3n12 | 3.2 mg/kg | –
56 | CCc1nnc2c(NC(C)=O)nc3ccc(F)cc3n12 | ≤ 3.2 mg/kg | –
57 | CCN(CC)c1nc2ccc(Cl)cc2n2c(-c3ccccc3)nnc12 | > 32 mg/kg | –
58 | c1ccc2c(c1)nc(N1CCCC1)c1nncn12 | > 32 mg/kg | 4.30
59 | CCc1nnc2c(N3CCCC3=O)nc3ccccc3n12 | > 32 mg/kg | –
60 | CCc1nnc2c(NC)nc3ccccc3n12 | 3.2 mg/kg | 5.22
61 | CCc1nnc2c(NC(C)=O)nc3cc(Cl)c(Cl)cc3n12 | ≤ 3.2 mg/kg | 5.89
62 | CCc1nnc2c(NC(C)=O)nc3ccc(Cl)cc3n12 | 1 mg/kg | 5.74
63 | CCc1nnc2c(N(CC)CC)nc3ccc(Cl)cc3n12 | ≤ 32 mg/kg | 5.19

Row | SMILES | minimal effective dose [1] | pIC50 [2]
64 | CCCC(=O)Nc1nc2ccc(Cl)cc2n2c(CC)nnc12 | ≤ 32 mg/kg | –
65 | CCc1nnc2c(N(CC)CC)nc3ccc(F)cc3n12 | 10 mg/kg | –
66 | CCc1nnc2c(N(C(C)=O)C(C)C)nc3ccc(Cl)cc3n12 | 10 mg/kg | –
67 | COc1ccc2c(c1)nc(NC(C)=O)c1nncn12 | ≤ 32 mg/kg | –
68 | CCNc1nc2ccccc2n2c(C(F)(F)F)nnc12 | 32 mg/kg | –
69 | CCc1nnc2c(N(CC)CC)nc3cc(Cl)c(Cl)cc3n12 | 3.2 mg/kg | 4.00
70 | CN(C)c1nc2ccccc2n2cnnc12 | ≤ 32 mg/kg | 4.23
71 | CCN(CC)c1nc2ccc(OC)cc2n2cnnc12 | > 32 mg/kg | –
72 | CNc1nc2ccccc2n2cnnc12 | 32 mg/kg | 4.00
73 | CCN(CC)c1nc2cc(Cl)ccc2n2cnnc12 | 32 mg/kg | –
74 | CCN(CC)c1nc2cc(F)c(F)cc2n2cnnc12 | 3.2 mg/kg | 5.30
75 | c1ccc2c(c1)nc(N1CCOCC1)c1nncn12 | > 32 mg/kg | –
76 | COc1nnc2c(NC(C)C)nc3ccc(Cl)cc3n12 | ≤ 32 mg/kg | –
77 | Nc1nc2cc(Cl)c(Cl)cc2n2cnnc12 | > 32 mg/kg | –
78 | CC(=O)Nc1nc2ccc(F)cc2n2c(C(F)(F)F)nnc12 | ≤ 3.2 mg/kg | 5.44
79 | CC(CO)Nc1nc2ccc(F)cc2n2cnnc12 (stereo not drawn) | > 32 mg/kg | –
80 | CC(N)Cc1ccccc1.O=S(=O)(O)O (stereo not drawn) [AMPHETAMINE SULFATE] | < 1 mg/kg | –
81 | CN(C)CCCN1c2ccccc2CCc2ccccc21 [IMIPRAMINE] | > 17.8 mg/kg | –
